One compound from publication PMC12000319, “Proton conductance by human uncoupling protein 1 is inhibited by purine and pyrimidine nucleotides” (The EMBO Journal, 2025) can be followed below.

Test [1] concerns the target T1, human OGC (SLC25A11) (Homo sapiens, UniProt Q02978).
T1 construct: His8 (N, cleaved yes); Factor Xa protease cleavage site (N, cleaved yes); made in house; host or cells: Saccharomyces cerevisiae strain W303.1B
T1 sequence (Q02978 1-314): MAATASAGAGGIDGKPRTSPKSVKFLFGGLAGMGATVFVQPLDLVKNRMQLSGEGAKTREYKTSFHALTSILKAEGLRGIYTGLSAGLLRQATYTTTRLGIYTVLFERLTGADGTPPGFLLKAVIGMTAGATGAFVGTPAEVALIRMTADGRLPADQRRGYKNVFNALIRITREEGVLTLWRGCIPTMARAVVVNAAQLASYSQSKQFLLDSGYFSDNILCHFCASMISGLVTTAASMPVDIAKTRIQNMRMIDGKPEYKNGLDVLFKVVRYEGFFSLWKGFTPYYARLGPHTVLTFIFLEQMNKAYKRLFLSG
Put plainly: Differential scanning fluorimetry (nanoDSF) thermal stability shift assay. Type of test: binding. The note with it: 1 mM nucleotide, pH 6.0, single repeats (source data Fig. 4A). The source says: (§1) UCP1 is phylogenetically related to mitochondrial dicarboxylate carriers, gaining thermogenic properties as a later evolutionary development (Hughes et al, [2009]; Robinson et al, [2008]). The mitochondrial dicarboxylate carrier (DIC, SLC25A10) and oxoglutarate carrier (OGC, SLC25A11) are most closely related to UCP1 (Gaudry et al, [2019]; Hughes et al, [2009]) and share many residues involved in nucleotide binding in UCP1, such as the arginine triplet at the contact points, R92 and Q85 (Jones et al, [2024]). Given the similarity of the central cavity of UCP1, OGC and DIC, we tested whether the dicarboxylate carriers have the ability to bind nucleotides. For this purpose, we purified human DIC and OGC, and tested whether nucleotides were able to generate a thermostability shift, as observed for their physiological substrates (Pyrihová et al, [2024]). However, all tested nucleotides caused a negligible shift with both DIC or OGC at all pH values tested between 6.0 and 8.0 (Fig. 4A; Appendix Fig. S5). Thus, despite having many residues in common (Fig. 4B–D), UCP1 has evolved to have a few specific residues that allow high-affinity binding of nucleotides without a strong selection for nucleobase.
(§2) Differential scanning fluorimetry (nanoDSF) (Alexandrov et al, [2008]) was carried out with 2 µg UCP1, DIC or OGC protein (100 mM MES/HEPES, pH range 6.0–8.0, 25 mM NaCl, 1 mM TCEP, 0.01% lauryl maltose neopentyl glycol and 0.01 mg/mL tetraoleoyl cardiolipin) and, when required, 1 mM nucleotide, as indicated. The proteins have the following number of tryptophans: UCP1 (two); OGC (two); DIC (one). The samples were loaded into nanoDSF-grade standard glass capillaries. The temperature was increased by […] every minute from 25 to 95 °C, the intrinsic fluorescence was measured in a Prometheus NT.48 nanoDSF device, and the apparent Tm was calculated with the PR.ThermControl software (NanoTemper Technologies).
For orientation: Differential scanning fluorimetry follows unfolding on heating by fluorescence.

Test [2] concerns the target T2, human DIC (SLC25A10) (Homo sapiens, UniProt Q9UBX3).
T2 construct: His8 (N, cleaved yes); Factor Xa protease cleavage site (N, cleaved yes); made in house; host or cells: Saccharomyces cerevisiae protease-deficient strain BJ2186
T2 sequence (Q9UBX3 1-287): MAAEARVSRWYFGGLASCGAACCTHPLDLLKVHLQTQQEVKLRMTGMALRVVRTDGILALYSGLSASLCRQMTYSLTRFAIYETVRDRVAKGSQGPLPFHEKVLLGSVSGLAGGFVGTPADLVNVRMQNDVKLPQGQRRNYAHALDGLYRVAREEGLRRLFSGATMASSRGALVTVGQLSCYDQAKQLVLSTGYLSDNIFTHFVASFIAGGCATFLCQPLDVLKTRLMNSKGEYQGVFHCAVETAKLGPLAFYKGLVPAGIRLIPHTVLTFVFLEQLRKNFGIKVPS
The test is described as above. The note with it: 1 mM nucleotide, pH 6.0, single repeats (source data Fig. 4A). Type of test: binding.
Text: as §1, §2

The target of test [3] is T3, UCP1 (Homo sapiens, UniProt P25874).
T3 construct: His8 (N, cleaved yes); Factor Xa protease cleavage site (N, cleaved yes); made in house; host or cells: Saccharomyces cerevisiae strain W303.1B
T3 sequence (P25874 1-307): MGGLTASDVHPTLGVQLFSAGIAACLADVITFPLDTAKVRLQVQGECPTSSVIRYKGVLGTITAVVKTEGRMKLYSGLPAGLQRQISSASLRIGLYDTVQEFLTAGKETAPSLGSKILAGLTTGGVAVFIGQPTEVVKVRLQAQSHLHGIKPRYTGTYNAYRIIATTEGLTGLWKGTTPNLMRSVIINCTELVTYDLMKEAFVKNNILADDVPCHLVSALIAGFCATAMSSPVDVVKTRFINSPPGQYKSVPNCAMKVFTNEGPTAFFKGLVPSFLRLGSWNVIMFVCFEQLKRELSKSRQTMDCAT
Put plainly: Isothermal titration calorimetry of nucleotide binding.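 For all read-outs here: purified human UCP1 in cacodylate buffer with lauryl maltose neopentyl glycol and cardiolipin, titrated with nucleotides, isotherms fitted by one-site model yielding ΔH, Kd and stoichiometry.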 More on the design: isotherm data point (enthalpy change per injection): unit not given here. The note with it: for isotherm data point (enthalpy change per injection): representative isotherm. (In general: In ITC the heat of successive injections is recorded.)

Where “and” joins values, the source holds several entries; their conditions need not be identical. Equal values may be shown once.

As usually defined, the Kd is the constant that tells how readily two partners part at equilibrium. Take `Nc1ncnc2c1ncn2[C@@H]1O[C@H](COP(=O)(O)OP(=O)(O)OP(=O)(O)O)[C@@H](O)[C@H]1O` [ATP, adenosine triphosphate]: the “change in apparent melting temperature (ΔTm) of hOGC” value in test [1] is 0.7 and 0.4. Besides, the “change in apparent melting temperature (ΔTm) of hDIC” value in test [2] is 1.0 and 0.5 and 0.8. Besides, the “binding affinity to UCP1 (in words)” value in test [3] (ITC) was “highest binding affinities”. Besides, the equilibrium dissociation constant (Kd) in test [3] (ITC, pH 6.0, 20 °C, mean ± standard deviation of three biological repeats (Fig. 2A-E)) is 880 ± 120 nM; in test [3] (ITC, single biological repeats (source data Fig. 2F)), 810 nM and 800 nM and 1020 nM. Further, the “isotherm data point (enthalpy change per injection)” value in test [3] (Molar ratio (Nucleotide/UCP) 0.120417, pH 6.0, 20 °C) is on record as -35.3409; in test [3] (Molar ratio (Nucleotide/UCP) 0.428528, pH 6.0, 20 °C), -34.4517; in test [3] (Molar ratio (Nucleotide/UCP) 0.491383, pH 6.0, 20 °C), -33.5364; in test [3] (Molar ratio (Nucleotide/UCP) 0.554656, pH 6.0, 20 °C) it was -34.076; in test [3] (Molar ratio (Nucleotide/UCP) 0.618348, pH 6.0, 20 °C), -33.0757; in test [3] (Molar ratio (Nucleotide/UCP) 0.682464, pH 6.0, 20 °C), -31.8617. Further, the “isotherm data point (enthalpy change per injection)” value in test [3] (Molar ratio (Nucleotide/UCP) 0.811976, pH 6.0, 20 °C) was -26.1456; in test [3] (Molar ratio (Nucleotide/UCP) 0.877378, pH 6.0, 20 °C) it was -22.2535; in test [3] (Molar ratio (Nucleotide/UCP) 0.943214, pH 6.0, 20 °C), -16.8687; in test [3] (Molar ratio (Nucleotide/UCP) 1.0762, pH 6.0, 20 °C), -7.301; in test [3] (Molar ratio (Nucleotide/UCP) 1.14336, pH 6.0, 20 °C) it was -4.354; in test [3] (Molar ratio (Nucleotide/UCP) 1.21096, pH 6.0, 20 °C) it was -2.46. Further, the “isotherm data point (enthalpy change per injection)” value in test [3] (Molar ratio (Nucleotide/UCP) 1.41647, pH 6.0, 20 °C) is recorded as -1.066; in test [3] (Molar ratio (Nucleotide/UCP) 1.69692, pH 6.0, 20 °C) it was -0.2462; in test [3] (Molar ratio (Nucleotide/UCP) 1.76819, pH 6.0, 20 °C) it was 0.1511; in test [3] (Molar ratio (Nucleotide/UCP) 1.91217, pH 6.0, 20 °C), -0.4754; in test [3] (Molar ratio (Nucleotide/UCP) 1.98488, pH 6.0, 20 °C) it was 0.1711.
